Laboratory results taken from US4788304A, “Phospholipase A2 inhibitors” (American Home Products Corporation, priority 1987, dated 1988).

Key:
[1] = test system: oxazolone-induced contact hypersensitivity in the mouse ear; assay: Oxazolone-induced contact hypersensitivity in the mouse ear; type: in vivo, mouse (Swiss Webster); conditions: dosed at 1 mg/ear
Protocol: The assay of this Example measures the ability of the compounds in the scope of the invention to inhibit oxazolone-induced contact hypersensitivity in the mouse ear.
Female, Swiss Webster mice (8 weeks old) are placed into groups of 6 and the abdominal area of each is shaved. The mice are sensitized to oxazolone (4-ethoxymethylene-2-phenyl-oxazol-5-one) by applying 100 μl of a 2% solution in 95% alcohol directly onto the shaved abdomen using an automatic pipette and rubbing the residual oxazolone into the skin with a round wooden stick. Six days after sensitization each mouse is challenged by applying 20 μl of a 2% oxazolone solution in 95% alcohol to the right ear (10 μl on each side) and 20 μl of alcohol alone to the left ear. Compounds for topical applications are prepared in acetone and administered to the right ear 30 min after challenge or 30 min prior to and 5 h after challenge; acetone (vehicle) is applied to the left ear. Compounds for oral administration are suspended in 0.5 ml of 0.5% methyl cellulose and given ten min prior to challenge. Ear thickness of both ears is measured in mm×10^-2 at 24 and 48 h after challenge using an Oditest caliper. Edema is calculated by subtracting the left ear thickness from the right ear thickness. Drug effects are determined by calculating the percentage change from control for each time period.

[2] = test system: synthesis of the arachidonic acid cyclooxygenase oxidation product TxB2; assay: Inhibition of TxB2 synthesis (cyclooxygenase product) by rat polymorphonuclear leukocytes; type: cell-based, rat (female Wistar); conditions: Leukocyte, A23187-stimulated rat PMN
[3] = test system: rat carrageenan paw edema; assay: Rat carrageenan paw edema; type: in vivo, rat (Sprague-Dawley); conditions: at 50 mg/kg (peroral), 1 h prior to carrageenan; 3 h
Protocol: The compounds in the scope of the invention are further tested in the rat carrageenan paw edema to determine their ability to inhibit the acute inflammatory response.
[…] male Sprague-Dawley rats, in groups of 6 animals are injected subcutaneously in the right paw with 0.1 ml of 1% carrageenan at zero time. Mercury plethysmographic readings (ml) of the paw are made at zero time and 3 hours later. Test compounds are suspended or dissolved in 0.5% methylcellulose and given perorally 1 hour prior to carrageenan administration.
The increase in paw volume (edema in ml.) produced by the carrageenan is measured. Paw edema is calculated (3 hour volume minus zero time volume), and percent inhibition of edema is determined. Unpaired Student's t-test is used to determine statistical significance.

SMILES: COC(=O)C1(C(=O)CCCCOc2ccc(Cl)cc2)CO1 (stereo not drawn) [Example 6A, 2-[5-(4-Chlorophenoxy)-1-oxopentyl]-2-oxiranecarboxylic acid methyl ester]
- % Inhibition (oxazolone contact hypersensitivity) [1]: 34.3%
- inhibition at 10 µM [2]: 30%
- % Inhibition of paw edema [3]: 50%
